Test results taken from US6200966A, “Compositions for inhibiting airway wall inflammation” (Amrad Operations Pty. Ltd., priority 1996, dated 2001).
“Also recorded” adds a separate entry of the source.

Key:
[1] = tested on: guinea-pig peritoneal macrophages; assay: Prostacyclin (6-oxo-PGF1α) release in peritoneal macrophages; assay type: cell-based
Procedure: Cells were incubated with stimuli including the chemotactic tripeptide, formyl methiony leucyl Phenylalanine (fMLP, 100 nM), Zymosan (400 μg/ml) or phorbol myristate acetate (PMA, 100 nM) for 30 min in the presence or absence of 2-methoxyestradiol (10 μM) added 15 min before the stimuli. […] All individual incubations were carried out in duplicate and experiments were carried out in macrophages from 5 guinea-pigs.

[2] = tested on: certain transformed cell lines; conditions: Lottering et al., 1992; cited from earlier work
glucocorticoid receptors = conditions: Merriam et al, 1980; cited from earlier work
[3] = tested on: human cultured airway smooth muscle cells; assay: Cell counting (increase in cell number); assay type: cell-based; conditions: FCS (1%) or bFGF (300 pM); 3 μM; 48 h
Procedure: Human bronchial airway smooth muscle was obtained from macroscopically normal lung resection specimens from lung transplant donors or recipients provided by the Alfred Hospital (Melbourne). Cultures were prepared as previously described in detail (Tomlinson et al., 1994). […]
The progression of airway smooth muscle cells through the cell-cycle to mitosis was determined by measuring changes in cell number in experiments of analogous design to those used for DNA synthesis, except that the incubations with mitogen were continued for 48 hours. […] At the end of this period, a further 200 μl of PBS (20% FCS) was added to prevent cell lysis by trypsin and cells were counted directly in a haemocytometer.
Each treatment in an individual experiment was carried out in quadruplicate for DNA and protein synthesis experiments. […] Results are presented as grouped data from multiple cultures and are expressed as mean ±S. E. of n cultures. The degree of increment was calculated by dividing the response of treated wells by that of the control wells on the same 24-well plate. The grouped data was analysed by paired t-test after normalisation by log transformation. […]

tumours = conditions: cited from earlier work
[4] = tested on: Human polymorphonuclear leukocytes; assay: Tetramethylbenzidine oxidation (myeloperoxidase release/activity) in leukocytes; conditions: for Tetramethylbenzidine oxidation: 2-methoxyestradiol 3 μM
[5] = tested on: airway smooth muscle cells; assay: Morphological changes (cell rounding); assay type: cell-based, human
horseradish peroxidase = assay: Oxidation of tetramethyl benzidine by purified horseradish peroxidase; assay type: biochemical; conditions: 10 μM
[6] = tested on: pig endometrial cell cultures; conditions: Zhang & Davis, 1992; cited from earlier work
[7] = tested on: endothelial cells and fibroblasts; conditions: actively proliferating or non-quiescent; cited from earlier work
[8] = tested on: airway smooth muscle cells; conditions: 10 μM
adherent monocytes [9] = assay: Tetramethyl benzidine oxidation in adherent monocytes; assay type: cell-based, human; conditions: PMA (1 μM) or zymosan (400 μg/ml); 10 μM
vascular smooth muscle = conditions: Goyache et al., 1995; cited from earlier work
[10] = tested on: guinea-pig peritoneal macrophages; assay: Superoxide anion release in peritoneal macrophages; assay type: cell-based; conditions: 10 μM
Procedure: Guinea-pig peritoneal macrophages were harvested and cultured according to out previous studies (Stewart & Phillips, 1989). Cells were incubated with stimuli including the chemotactic tripeptide, formyl methiony leucyl Phenylalanine (fMLP, 100 nM), Zymosan (400 μg/ml) or phorbol myristate acetate (PMA, 100 nM) for 30 min in the presence or absence of 2-methoxyestradiol (10 μM) added 15 min before the stimuli. […] All individual incubations were carried out in duplicate and experiments were carried out in macrophages from 5 guinea-pigs.

adherent monocytes [11] = assay: Superoxide anion generation in adherent monocytes; assay type: cell-based, human

For `COc1cc2c(cc1O)CC[C@@H]1[C@@H]2CC[C@]2(C)[C@@H](O)CC[C@@H]12` [2-methoxyestradiol, 1,3,5[10]-estratriene-2,3,17-triol 2-methylether], the inhibition at 10 µM ([1]; Cavia porcellus, Peritoneal macrophage, 0.5 h, PMA (100 nM), read-out: reduction of 6-oxo-PGF1α / prostacyclin response, PMA) is given as 50%, the “6-oxo-PGF1α / prostacyclin generation, fMLP” value ([1]; fMLP (100 nM), 10 μM) is given as “completely blocked” and the “proliferation of transformed cell lines” value [2] is given as “inhibits proliferation”. For the same molecule, the “affinity for glucocorticoid receptors” value (glucocorticoid receptors) was “not to have significant affinity”, the “increase in cell number” value [3] was “complete inhibition” and the growth of tumours (tumours; Fotsis et al., 1994) was “inhibited the growth of tumurs”. For the same molecule, the tumour neovascularization (tumours; Klauber et al, 1997) was “Inhibition of tumour neovascularization”, the “oxidation of tetramethyl-benzidine in leukocytes” value ([4]; 3 μM, zymosan (400 μg/ml) or fMLP stimulated) was “reduced oxidation of tetramethyl-benzidine” and the Tetramethylbenzidine oxidation ([4]; control (no stimulus), 2×10^6 PMN in 0.5 ml) was -0.004 change in absorbance value. For the same molecule, the Tetramethylbenzidine oxidation ([4]; fMLP 100 nM (basal 0.057)) was 0.028 change in absorbance value, the Tetramethylbenzidine oxidation ([4]; zymosan 400 μg/ml (basal 0.26)) was 0.013 change in absorbance value and the “myeloperoxidase activity in cell-free supernatants” value ([4]; fMLP stimulated leukocytes, highest concentration 10 μM) was “reduced only by the highest concentration”. For the same molecule, the “release of myeloperoxidase from polymorphonuclear leukocytes” value ([4]; human peripheral blood) was “inhibits the release of myeloperoxidase”, the “onset of shape changes” value ([5]; 3 and 10 μM) was no more than 6 h and the morphological changes ([5]; 3 and 10 μM (2-methoxyestradiol)) was “rounded appearance of the normally spindle-shaped cells”. The “oxidation of tetramethyl benzidine by purified horseradish peroxidase” value (horseradish peroxidase) was “lack of effect; also recorded: no effect”, the “synthesis of PGF2α” value [6] was “inhibits the synthesis of PGF2α” and the “proliferation of endothelial cells and fibroblasts” value [7] was “inhibits proliferation”. For the same molecule, the “cell detachment from the culture plates” value [8] was “no cell detachment”, the “protein synthesis rates (as evidence against cytotoxicity)” value [8] was “not altered” and the “oxidation of tetramethyl benzidine in adherent monocytes” value (adherent monocytes [9]) was “unaffected”. For the same molecule, the “vascular smooth muscle relaxation” value (vascular smooth muscle) was “relaxation of vascular smooth muscle”, the “superoxide anion response of macrophages, PMA” value ([10]; PMA (100 nM)) was “unaffected” and the “superoxide anion response of macrophages, fMLP” value ([10]; fMLP (100 nM)) was “reduced”. The “superoxide anion response of macrophages, zymosan” value ([10]; zymosan (400 μg/ml)) was “reduced; also recorded: completely blocked”, the “superoxide anion generation in adherent monocytes, PMA” value (adherent monocytes [11]; response to PMA) was “unaffected” and the “superoxide anion generation in adherent monocytes, zymosan” value (adherent monocytes [11]; zymosan-stimulated, 10 μM, at least some donors) was “markedly inhibited”.
